Common to all, as to assay: relative viability (nuclei count vs DMSO), 5 days (fraction); higher = more cells survive
Compound in the experiment “Tivantinib + Luminespib”: O=C1NC(=O)[C@@H](c2cn3c4c(cccc24)CCC3)[C@@H]1c1c[nH]c2ccccc12 [Tivantinib] + CCNC(=O)c1noc(-c2cc(C(C)C)c(O)cc2O)c1-c1ccc(CN2CCOCC2)cc1 [Luminespib] (partner 0.01 µM)
The method, boiled down: (§1)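 Relative viability was taken as the ratio of nuclei in treated wells to nuclei in vehicle wells. Lung cancer cell lines in 1536-well plates received compounds by pin tool one day after seeding, either one drug alone or a fixed anchor-drug dose plus five library-drug doses (not always all listed) in √10 steps. Nuclei were counted on 4× images after 5 days of treatment, and values are medians of duplicate plates.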

Compound in the experiment “Crenolanib + Lapatinib”: CC1(COc2ccc3c(c2)ncn3-c2ccc3cccc(N4CCC(N)CC4)c3n2)COC1 [Crenolanib] + CS(=O)(=O)CCNCc1ccc(-c2ccc3ncnc(Nc4ccc(OCc5cccc(F)c5)c(Cl)c4)c3c2)o1 [Lapatinib] (partner 2 µM)
In short, it runs like this: as §1

Compound in the experiment “Tivantinib + Phenformin”: O=C1NC(=O)[C@@H](c2cn3c4c(cccc24)CCC3)[C@@H]1c1c[nH]c2ccccc12 [Tivantinib] + N=C(N)NC(=N)NCCc1ccccc1 [Phenformin] (partner 250 µM)
In short, it runs like this:
as §1

Compound in the experiment “Tivantinib + Palbociclib”: O=C1NC(=O)[C@@H](c2cn3c4c(cccc24)CCC3)[C@@H]1c1c[nH]c2ccccc12 [Tivantinib] + CC(=O)c1c(C)c2cnc(Nc3ccc(N4CCNCC4)cn3)nc2n(C2CCCC2)c1=O [Palbociclib] (partner 0.5 µM)
In short, it runs like this:
as §1

Regarding NCI-H596, the relative viability in the experiment with Tivantinib + Luminespib (first compound 0.01 µM) was determined as 1.01; with Tivantinib + Luminespib (first compound 0.03162 µM) it was 1.01; with Tivantinib + Luminespib (first compound 0.1 µM), 1.08; in the experiment with Tivantinib + Luminespib (first compound 0.3162 µM), 0.935; with Crenolanib + Lapatinib (first compound 0.01 µM), 0.947; with Crenolanib + Lapatinib (first compound 0.03162 µM), 1.09. The relative viability with Crenolanib + Lapatinib (first compound 0.1 µM) is 0.89; with Crenolanib + Lapatinib (first compound 0.3162 µM), 1.14; in the experiment with Crenolanib + Lapatinib (first compound 1 µM), 1.18; with Tivantinib + Phenformin (first compound 0.01 µM), 0.665; with Tivantinib + Phenformin (first compound 0.03162 µM) it was 0.651; with Tivantinib + Phenformin (first compound 0.1 µM), 0.715. The relative viability with Tivantinib + Phenformin (first compound 0.3162 µM) stood at 0.771.

As for SK-LU-1, the relative viability in the experiment with Tivantinib + Luminespib (first compound 0.01 µM) is 0.183; in the experiment with Tivantinib + Luminespib (first compound 0.03162 µM), 0.218; with Tivantinib + Luminespib (first compound 0.1 µM), 0.197; in the experiment with Tivantinib + Luminespib (first compound 0.3162 µM) it was 0.199; with Crenolanib + Lapatinib (first compound 0.01 µM) it was 0.911; in the experiment with Crenolanib + Lapatinib (first compound 0.03162 µM) it was 0.917. The relative viability with Crenolanib + Lapatinib (first compound 0.1 µM) turned out to be 0.694; with Crenolanib + Lapatinib (first compound 0.3162 µM), 0.921; with Crenolanib + Lapatinib (first compound 1 µM), 0.958; in the experiment with Tivantinib + Phenformin (first compound 0.01 µM) it was 0.536; in the experiment with Tivantinib + Phenformin (first compound 0.03162 µM), 0.539; with Tivantinib + Phenformin (first compound 0.1 µM), 0.497. The relative viability with Tivantinib + Phenformin (first compound 0.3162 µM) is 0.601; with Tivantinib + Palbociclib (first compound 0.01 µM), 0.42; with Tivantinib + Palbociclib (first compound 0.03162 µM) it was 0.394; with Tivantinib + Palbociclib (first compound 0.1 µM), 0.423; in the experiment with Tivantinib + Palbociclib (first compound 0.3162 µM), 0.34.

Consider A-427, for which the relative viability with Tivantinib + Luminespib (first compound 0.01 µM) stood at 0.971; with Tivantinib + Luminespib (first compound 0.03162 µM), 0.873; with Tivantinib + Luminespib (first compound 0.1 µM) it was 0.899; with Tivantinib + Luminespib (first compound 0.3162 µM), 0.76; with Crenolanib + Lapatinib (first compound 0.01 µM), 0.996; in the experiment with Crenolanib + Lapatinib (first compound 0.03162 µM), 0.998. The relative viability with Crenolanib + Lapatinib (first compound 0.1 µM) was determined as 1.04; with Crenolanib + Lapatinib (first compound 0.3162 µM) it was 1.06; in the experiment with Crenolanib + Lapatinib (first compound 1 µM), 1.06; in the experiment with Tivantinib + Phenformin (first compound 0.01 µM), 0.378; with Tivantinib + Phenformin (first compound 0.03162 µM), 0.391; with Tivantinib + Phenformin (first compound 0.1 µM), 0.325. Also, the relative viability was 0.304 with Tivantinib + Phenformin (first compound 0.3162 µM); 0.547 with Tivantinib + Palbociclib (first compound 0.01 µM); 0.551 with Tivantinib + Palbociclib (first compound 0.03162 µM); 0.484 in the experiment with Tivantinib + Palbociclib (first compound 0.1 µM); 0.507 in the experiment with Tivantinib + Palbociclib (first compound 0.3162 µM).

On to NCI-H460, for which the relative viability with Tivantinib + Luminespib (first compound 0.01 µM) amounted to 0.0321; in the experiment with Tivantinib + Luminespib (first compound 0.03162 µM) it was 0.0359; with Tivantinib + Luminespib (first compound 0.1 µM), 0.0227; in the experiment with Tivantinib + Luminespib (first compound 0.3162 µM), 0.0374; with Crenolanib + Lapatinib (first compound 0.01 µM), 0.997; with Crenolanib + Lapatinib (first compound 0.03162 µM) it was 1. In addition, the relative viability in the experiment with Crenolanib + Lapatinib (first compound 0.1 µM) is 1.04; with Crenolanib + Lapatinib (first compound 0.3162 µM), 1.46; with Crenolanib + Lapatinib (first compound 1 µM), 1.01; with Tivantinib + Phenformin (first compound 0.01 µM), 0.532; with Tivantinib + Phenformin (first compound 0.03162 µM) it was 0.509; in the experiment with Tivantinib + Phenformin (first compound 0.1 µM) it was 0.474. The relative viability was found to be 0.563 with Tivantinib + Phenformin (first compound 0.3162 µM); 0.141 with Tivantinib + Palbociclib (first compound 0.01 µM); 0.138 with Tivantinib + Palbociclib (first compound 0.03162 µM); 0.162 with Tivantinib + Palbociclib (first compound 0.1 µM); 0.135 in the experiment with Tivantinib + Palbociclib (first compound 0.3162 µM).

Regarding NCI-H1734, the relative viability in the experiment with Tivantinib + Luminespib (first compound 0.01 µM) amounted to 0.206; with Tivantinib + Luminespib (first compound 0.03162 µM) it was 0.198; in the experiment with Tivantinib + Luminespib (first compound 0.1 µM), 0.0957; with Tivantinib + Luminespib (first compound 0.3162 µM), 0.191; in the experiment with Crenolanib + Lapatinib (first compound 0.01 µM), 1; with Crenolanib + Lapatinib (first compound 0.03162 µM), 1.08. Further, the relative viability came out at 0.995 in the experiment with Crenolanib + Lapatinib (first compound 0.1 µM); 1.27 in the experiment with Crenolanib + Lapatinib (first compound 0.3162 µM); 0.937 with Crenolanib + Lapatinib (first compound 1 µM); 0.401 with Tivantinib + Phenformin (first compound 0.01 µM); 0.346 in the experiment with Tivantinib + Phenformin (first compound 0.03162 µM); 0.386 in the experiment with Tivantinib + Phenformin (first compound 0.1 µM). The relative viability with Tivantinib + Phenformin (first compound 0.3162 µM) was determined as 0.451; with Tivantinib + Palbociclib (first compound 0.01 µM) it was 0.384; with Tivantinib + Palbociclib (first compound 0.03162 µM), 0.319; with Tivantinib + Palbociclib (first compound 0.1 µM), 0.336; in the experiment with Tivantinib + Palbociclib (first compound 0.3162 µM), 0.366.

In the case of NCI-H1915, the relative viability was determined as 0.883 with Tivantinib + Luminespib (first compound 0.01 µM); 0.775 with Tivantinib + Luminespib (first compound 0.03162 µM); 0.722 in the experiment with Tivantinib + Luminespib (first compound 0.1 µM); 0.765 with Tivantinib + Luminespib (first compound 0.3162 µM); 0.943 with Crenolanib + Lapatinib (first compound 0.01 µM); 0.927 in the experiment with Crenolanib + Lapatinib (first compound 0.03162 µM). Further, the relative viability in the experiment with Crenolanib + Lapatinib (first compound 0.1 µM) was 1.01; with Crenolanib + Lapatinib (first compound 0.3162 µM) it was 0.956; in the experiment with Crenolanib + Lapatinib (first compound 1 µM), 0.764; with Tivantinib + Phenformin (first compound 0.01 µM) it was 0.362; with Tivantinib + Phenformin (first compound 0.03162 µM), 0.354; with Tivantinib + Phenformin (first compound 0.1 µM) it was 0.367. Further, the relative viability with Tivantinib + Phenformin (first compound 0.3162 µM) amounted to 0.378; in the experiment with Tivantinib + Palbociclib (first compound 0.01 µM) it was 0.527; with Tivantinib + Palbociclib (first compound 0.03162 µM) it was 0.446; with Tivantinib + Palbociclib (first compound 0.1 µM), 0.544; in the experiment with Tivantinib + Palbociclib (first compound 0.3162 µM), 0.58.

With Calu-6, the relative viability with Crenolanib + Lapatinib (first compound 0.01 µM) was found to be 0.996; with Crenolanib + Lapatinib (first compound 0.03162 µM), 1.02; in the experiment with Crenolanib + Lapatinib (first compound 0.1 µM) it was 1.05; with Crenolanib + Lapatinib (first compound 0.3162 µM), 1.27; with Crenolanib + Lapatinib (first compound 1 µM) it was 1.06.

Regarding SW 1573, the relative viability in the experiment with Tivantinib + Luminespib (first compound 0.01 µM) was determined as 0.263; with Tivantinib + Luminespib (first compound 0.03162 µM), 0.525; with Tivantinib + Luminespib (first compound 0.1 µM), 0.17; in the experiment with Tivantinib + Luminespib (first compound 0.3162 µM), 0.271; in the experiment with Crenolanib + Lapatinib (first compound 0.01 µM) it was 1.01; with Crenolanib + Lapatinib (first compound 0.03162 µM), 1.06. In addition, the relative viability with Crenolanib + Lapatinib (first compound 0.1 µM) is 1.3; in the experiment with Crenolanib + Lapatinib (first compound 0.3162 µM), 1.18; with Crenolanib + Lapatinib (first compound 1 µM) it was 1.1; with Tivantinib + Phenformin (first compound 0.01 µM), 0.419; with Tivantinib + Phenformin (first compound 0.03162 µM), 0.357; in the experiment with Tivantinib + Phenformin (first compound 0.1 µM) it was 0.392. Moreover, the relative viability came out at 0.263 with Tivantinib + Phenformin (first compound 0.3162 µM); 0.464 in the experiment with Tivantinib + Palbociclib (first compound 0.01 µM); 0.384 with Tivantinib + Palbociclib (first compound 0.03162 µM); 0.32 with Tivantinib + Palbociclib (first compound 0.1 µM); 0.343 in the experiment with Tivantinib + Palbociclib (first compound 0.3162 µM).

Source of the values: the supplement of paper PMC10307832.
